Data: patent US12171806B2, “Therapeutic regimens and methods for lowering blood glucose and/or body weight using GLP-1R and GCGR balanced agonists” (priority 2021, dated 2024)

Assays:
[1] = in 6 weeks; cited from earlier work
[2] = over 26 weeks; cited from earlier work
[3] = biological target: T1, glucagon (human, cloned into CHO cells) receptor (Homo sapiens, UniProt P47871); assay: cAMP stimulation cellular assay (DiscoveRx LeadHunter), glucagon receptor; type: cell-based; settings: 0.1% BSA
T1 construct: host or cells: CHO cells
T1 sequence (P47871 26-477): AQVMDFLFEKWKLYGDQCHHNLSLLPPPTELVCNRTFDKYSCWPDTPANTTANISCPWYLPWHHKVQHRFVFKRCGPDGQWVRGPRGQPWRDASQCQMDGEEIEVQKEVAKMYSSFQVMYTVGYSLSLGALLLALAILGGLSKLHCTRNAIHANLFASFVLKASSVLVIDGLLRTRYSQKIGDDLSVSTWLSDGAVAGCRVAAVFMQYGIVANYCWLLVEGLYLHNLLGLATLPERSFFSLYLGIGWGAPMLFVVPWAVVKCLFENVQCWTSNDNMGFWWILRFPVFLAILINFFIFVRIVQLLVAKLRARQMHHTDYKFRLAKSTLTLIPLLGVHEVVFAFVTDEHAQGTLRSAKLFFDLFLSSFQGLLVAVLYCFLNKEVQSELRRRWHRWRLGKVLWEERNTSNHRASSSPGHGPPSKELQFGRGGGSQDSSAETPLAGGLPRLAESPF

Row | SMILES | reduction in liver fat content / hepatic fat fraction [1] | weight loss [2] | EC50 [3]
1 | CCCCCCCCCCCCCCCC(=O)N[C@@H](CCC(=O)NCCCC[C@H](NC(=O)[C@H](CC(=O)O)NC(=O)[C@H](CO)NC(=O)[C@@H](NC(=O)[C@H](Cc1ccccc1)NC(=O)[C@@H](NC(=O)CNC(=O)[C@H](CCC(N)=O)NC(=O)[C@H](CO)NC(=O)[C@@H](N)Cc1c[nH]cn1)[C@@H](C)O)[C@@H](C)O)C(=O)N[C@@H](CO)C(=O)N[C@@H](CCC(=O)O)C(=O)N[C@@H](Cc1ccc(O)cc1)C(=O)N[C@@H](CC(C)C)C(=O)N[C@@H](CC(=O)O)C(=O)N[C@@H](CO)C(=O)N[C@@H](CCC(=O)O)C(=O)N[C@@H](CCCNC(=N)N)C(=O)N[C@@H](C)C(=O)N[C@@H](CCCNC(=N)N)C(=O)N[C@@H](CC(=O)O)C(=O)N[C@@H](Cc1ccccc1)C(=O)N[C@H](C(=O)N[C@@H](C)C(=O)N[C@@H](Cc1c[nH]c2ccccc12)C(=O)N[C@@H](CC(C)C)C(=O)N[C@@H](CCC(=O)O)C(=O)N[C@@H](C)C(=O)NCC(=O)NCC(=O)O)C(C)C)C(=O)O [cotadutide] | 39% | 5.4% | 
2 | CC[C@H](C)[C@H](NC(=O)[C@H](Cc1ccccc1)NC(=O)[C@H](CCC(=O)O)NC(=O)[C@@H]1CCCCNC(=O)CC[C@H](NC(=O)[C@H](CC(=O)O)NC(=O)[C@H](CC(C)C)NC(=O)[C@H](Cc2ccc(O)cc2)NC(=O)[C@H](CCCCN)NC(=O)[C@H](CO)NC(=O)[C@H](Cc2ccc(O)cc2)NC(=O)[C@H](CC(=O)O)NC(=O)[C@H](CO)NC(=O)[C@@H](NC(=O)[C@H](Cc2ccccc2)NC(=O)[C@@H](NC(=O)CNC(=O)[C@H](CCC(N)=O)NC(=O)C(C)(C)NC(=O)[C@@H](N)Cc2c[nH]cn2)[C@@H](C)O)[C@@H](C)O)C(=O)N[C@@H](CCC(N)=O)C(=O)N[C@@H](C)C(=O)N[C@@H](C)C(=O)N1)C(=O)N[C@@H](CCCCNC(=O)[C@H]1O[C@@H](OCCCCCCCCCCCCCCCCCC(=O)O)[C@H](O)[C@@H](O)[C@@H]1O)C(=O)N[C@@H](Cc1c[nH]c2ccccc12)C(=O)N[C@@H](CC(C)C)C(=O)N[C@@H](CC(C)C)C(=O)N[C@@H](CCC(N)=O)C(=O)N[C@H](C(N)=O)[C@@H](C)O [EU-A1872] |  |  | 2.62 nM
